Source: article PMC3917258, “6-Bromoisatin Found in Muricid Mollusc Extracts Inhibits Colon Cancer Cell Proliferation and Induces Apoptosis, Preventing Early Stage Tumor Formation in a Colorectal Cancer Rodent Model” (Marine Drugs, 2013)

Tests used:
[1] = test system: lymphoma (U937) cell line; parameters: method as in PMID 17088067; conditions: cited from earlier work
[2] = test system: ERK-2; parameters: method as in PMID 11006132; conditions: 100 µM, compared to the control; cited from earlier work
[3] = test system: human neuroblastoma SH-SY5Y cells; parameters: method as in PMID 15876476; conditions: 50 µM; cited from earlier work
[4] = test system: human promyelocytic leukemia (HL60) cancer cells; parameters: method as in PMID 11006132; conditions: 100 µM; cited from earlier work
[5] = test system: caspase 3/7 activity in HT29 cells; test: Caspase-Glo 3/7 assay; assay type: cell-based, human; conditions: positive control, 5 µM, 12 h
Description: All media and chemicals were purchased from Sigma Aldrich (Castle Hill, NSW, Australia) unless otherwise stated. HT29 human colorectal cancer cell line (passage no. 36-42) were cultured (37 °C and 5% CO2) in Dulbecco’s Modified Eagle’s Medium (DMEM) supplemented with 4500 mg/L L-glutamine, 10% FBS, 100 U/mL Penicillin/Streptomycin and 1% Non-essential Amino Acid (100×), until the cells reached 70% confluence. The cells were harvested from flasks by trypsinization (1× Trypsin-EDTA) and were seeded (20,000 cells/well) into clear 96-well plates (Costar®, Mt Martha, VIC, Australia) for measurement of cell viability and white (opaque) 96-well plates (Interpath, Heidelberg West, VIC, Australia) for determination of apoptosis and necrosis. HT29 cells were incubated for 48 h, then the media was removed and the cells were washed with PBS. To treat the cells, synthetic 6-bromoisatin was dissolved in 100% dimethylsulphoxide (DMSO) then diluted in media and added to the cells at a range of concentrations from 0.1 to 0.01 mg/mL, in triplicate (final DMSO concentration of 1%). 1% DMSO controls were also included on each plate. Staurosporine (5 µM) for apoptosis and lysis solution (5 μL/well, Promega, Alexandria, NSW, Australia) for necrosis were added to the white plates in triplicate, as positive controls. All cells were treated for 12 h. Morphological changes in the cells were observed on an Olympus CK2 inverted optical microscope (×400 magnification) 12 h after treatment. To measure cell viability, the MTT assay was applied, which measures the reduction of MTT tetrazolium salt to formazan, as previously described. To measure necrosis and apoptosis, CytoTox-ONE Homogeneous Membrane Integrity Assay reagent (Promega) and Caspase-Glo 3/7® assay (Promega) were applied respectively, according to our previous study. These assays were all repeated in triplicate on three separate occasions (n = 3).

Q: Which “activity for killing cancer cells relative to unsubstituted isatin” value [1] does the source give for `O=C1Nc2ccc(Br)cc2C1=O` [5-bromo-] here?
A: Its value is 5–10 times.

Q: For `O=C1Nc2ccc(F)cc2C1=O` [5-fluoroisatin], which “activity for killing cancer cells relative to unsubstituted isatin” value [1] is on record?
A: The value was 5–10 times.

Q: For `O=C1Nc2ccc(I)cc2C1=O` [5-iodo-], which “activity for killing cancer cells relative to unsubstituted isatin” value [1] is on record?
A: Its value is 5–10 times.

Q: Which “inhibition of phosphorylation of ERK-2” value [2] does the source give for `O=C1Nc2ccccc2C1=O` [isatin, 1H-indole-2,3-dione] here?
A: The value was 35%.

Q: And the apoptosis [3]?
A: Its apoptosis is “apoptosis was observed”.

Q: And the “reduction of cell proliferation” value [4]?
A: Its value is 80%.

Q: Which “caspase 3/7 activity” value [5] does the source give for `CN[C@@H]1C[C@H]2O[C@@](C)([C@@H]1OC)n1c3ccccc3c3c4c(c5c6ccccc6n2c5c31)C(=O)NC4` [staurosporine, reference compound] here?
A: The value was “significant increase”.
